Reference: US5143931A, “Leukotriene antagonists containing tetrazolyl groups” (SmithKline Beecham Corporation, priority 1990, dated 1992)
Counter-ions that a name gives are not always drawn.

target: T1, leukotriene induced contraction of guinea pig tracheal tissues (Cavia porcellus, UniProt Q2NNR5); assay: Inhibition of leukotriene (LTD4) induced contraction of guinea pig tracheal spiral strips in vitro; details: LTD4 concentration-response curves on guinea pig tracheal strips, 30 minutes pretreatment with test compound; current average where tested more than once; read-out: In Vitro -Log K8 (converted)
T1 sequence (Q2NNR5 1-340): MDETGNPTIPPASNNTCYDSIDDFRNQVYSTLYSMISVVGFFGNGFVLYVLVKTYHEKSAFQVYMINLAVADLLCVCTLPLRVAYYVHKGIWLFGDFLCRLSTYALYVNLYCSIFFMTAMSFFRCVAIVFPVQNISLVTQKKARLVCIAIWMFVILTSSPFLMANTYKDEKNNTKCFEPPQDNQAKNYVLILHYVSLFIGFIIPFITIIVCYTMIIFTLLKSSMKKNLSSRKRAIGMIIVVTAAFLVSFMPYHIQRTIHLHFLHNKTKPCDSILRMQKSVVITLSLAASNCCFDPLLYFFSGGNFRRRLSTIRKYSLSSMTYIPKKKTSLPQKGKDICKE

Row | Structure (SMILES) | Kd
1 | CCCCCCCCCCCCc1ccccc1C(Sc1nnnn1CC(=O)O)C(=O)O (stereo not drawn) [2(2-Dodecylphenyl)-2[(1-carboxymethyl-5-tetrazolyl)thio]acetic acid] | 794 nM
2 | CCCCCCCCCCCCc1ccccc1C(Sc1nnnn1C)C(=O)O (stereo not drawn) [5-tetrazolyl, 0,1-CH3, C12 H25, CO2 H, 2-(2-Dodecylphenyl)-2[(1-methyl-5-tetrazolyl)thio]acetic acid] | 1580 nM
3 | O=C(O)CCCn1nnnc1SC(C(=O)O)c1ccccc1CCCCCCCCc1ccccc1 (stereo not drawn) [dipotassium salt hydrate] | 1000 nM
